molecular target: T1, human FXR (Homo sapiens, UniProt Q96RI1); assay: transient human FXR/Gal4-luciferase reporter assay; assay type: cell-based; settings: Gal4-hFXR transfected HEK293 reporter cells; relative to 8 μM GW-4064
T1 construct: expressed in transfected cells; host or cells: HEK293 cells stably carrying a 5xGal4-response-element firefly luciferase reporter, transiently transfected with pcDNA3.1-Gal4-FXR
T1 sequence (Q96RI1 262-486 limits assumed): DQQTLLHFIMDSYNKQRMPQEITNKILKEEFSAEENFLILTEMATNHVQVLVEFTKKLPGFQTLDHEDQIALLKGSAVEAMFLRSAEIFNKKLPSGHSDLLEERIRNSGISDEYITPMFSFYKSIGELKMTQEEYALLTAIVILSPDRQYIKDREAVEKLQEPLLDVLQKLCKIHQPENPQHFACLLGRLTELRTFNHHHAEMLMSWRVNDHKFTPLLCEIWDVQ
Method in brief: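 HEK293 cells stably carrying a 5×Gal4-response-element firefly luciferase reporter, transiently transfected overnight with a CMV-driven Gal4 DNA-binding domain/human FXR ligand-binding domain fusion.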

Compound	EC50 [nM]
CC1(c2onc(-c3c(Cl)cncc3Cl)c2C2=CC3(CCN(c4ccc5nc(C(=O)O)cc(C(F)(F)F)c5c4)CC3)C2)CC1 [Example 94, 6-(2-(3-(3,5-Dichloropyridin-4-yl)-5-(1-methylcyclopropyl)isoxazol-4-yl)-7-azaspiro[3.5]non-1-en-7-yl)-4-(trifluoromethyl)quinoline-2-carboxylic acid]	507
CCNC(=O)c1cc(F)c2nc(N3CCC4(C=C(c5c(-c6c(Cl)cncc6Cl)noc5C5CC5)C4)CC3)sc2c1 [Example 200, 2-(2-(5-Cyclopropyl-3-(3,5-dichloropyridin-4-yl)isoxazol-4-yl)-7-azaspiro[3.5]non-1-en-7-yl)-N-ethyl-4-fluorobenzo[d]thiazole-6-carboxamide]	68
O=C(O)c1ccc(N2[C@@H]3CC[C@H]2CC2(C=C(c4c(-c5c(Cl)cccc5Cl)noc4C4CC4)C2)C3)nc1 (mixture of isomers) [Example 12, 6-(3′-(5-Cyclopropyl-3-(2,6-dichlorophenyl)isoxazol-4-yl)-8-azaspiro[bicyclo[3.2.1]octane-3,1′-cyclobutan]-2′-en-8-yl)nicotinic acid]	182
O=C(O)c1cc(C(F)(F)F)c2cc(N3CCC4(C=C(c5c(-c6c(F)cncc6F)noc5C5CC5)C4)CC3)ccc2n1 [Example 93, 6-(2-(5-Cyclopropyl-3-(3,5-difluoropyridin-4-yl)isoxazol-4-yl)-7-azaspiro[3.5]non-1-en-7-yl)-4-(trifluoromethyl)quinoline-2-carboxylic acid]	511
O=C(O)COc1cnc2ccc(N3CCC4(C=C(c5c(-c6c(Cl)cccc6Cl)noc5C5CC5)C4)CC3)cc2n1 [Example 130, 2-((7-(2-(5-Cyclopropyl-3-(2,6-dichlorophenyl)isoxazol-4-yl)-7-azaspiro[3.5]non-1-en-7-yl)quinoxalin-2-yl)oxy)acetic acid]	373
CC(C)c1onc(-c2c(Cl)cccc2Cl)c1C1=CC2(CCN(c3ccc4cc(C(=O)O)nnc4c3)CC2)C1 [Example 148, 7-(2-(3-(2,6-Dichlorophenyl)-5-isopropylisoxazol-4-yl)-7-azaspiro[3.5]non-1-en-7-yl) cinnoline-3-carboxylic acid]	548
Cn1nc(N2CCC3(C=C(c4c(-c5ccccc5OC(F)(F)F)noc4C4CC4)C3)CC2)c2ncc(C(=O)O)cc21 [Example 173, 3-(2-(5-Cyclopropyl-3-(2-(trifluoromethoxy)phenyl)isoxazol-4-yl)-7-azaspiro[3.5]non-1-en-7-yl)-1-methyl-1H-pyrazolo[4,3-b]pyridine-6-carboxylic acid]	2790
O=C(O)c1cnc(N2CCC3(C=C(c4c(-c5c(Cl)cccc5Cl)noc4C4CC4)C3)CC2)nc1C(F)(F)F [Example 119, 2-(2-(5-Cyclopropyl-3-(2,6-dichlorophenyl)isoxazol-4-yl)-7-azaspiro[3.5]non-1-en-7-yl)-4-(trifluoromethyl)pyrimidine-5-carboxylic acid]	316
CS(=O)(=O)NC(=O)c1cc(OC(F)F)c2cc(N3CCC4(C=C(c5c(-c6c(Cl)cncc6Cl)noc5C5CC5)C4)CC3)ccc2n1 [Example 185, 6-(2-(5-Cyclopropyl-3-(3,5-dichloropyridin-4-yl)isoxazol-4-yl)-7-azaspiro[3.5]non-1-en-7-yl)-4-(difluoromethoxy)-N-(methylsulfonyl)quinoline-2-carboxamide]	16
NS(=O)(=O)NC(=O)c1cc(F)c2nc(N3CCC4(C=C(c5c(-c6c(Cl)cncc6Cl)noc5C5CC5)C4)CC3)sc2c1 [Example 197, 2-(2-(5-Cyclopropyl-3-(3,5-dichloropyridin-4-yl)isoxazol-4-yl)-7-azaspiro[3.5]non-1-en-7-yl)-4-fluoro-N-sulfamoylbenzo[d]thiazole-6-carboxamide]	381
Cn1cc(C(=O)O)c2ccc(N3CCC4(C=C(c5c(C6CCCCC6)noc5C5CC5)C4)CC3)cc21 [Example 168, 6-(2-(3-Cyclohexyl-5-cyclopropylisoxazol-4-yl)-7-azaspiro[3.5]non-1-en-7-yl)-1-methyl-1H-indole-3-carboxylic acid]	3970
Cc1cc(C(=O)O)cnc1N1CCC2(C=C(c3c(-c4c(Cl)cccc4Cl)noc3C3CC3)C2)CC1 [Example 121, 6-(2-(5-Cyclopropyl-3-(2,6-dichlorophenyl)isoxazol-4-yl)-7-azaspiro[3.5]non-1-en-7-yl)-5-methylnicotinic acid]	2590
Cc1c(N2CCC3(C=C(c4c(-c5ccccc5C(F)(F)F)noc4C4CC4)C3)CC2)ccc2cc(C(=O)O)cnc12 [Example 170, 7-(2-(5-Cyclopropyl-3-(2-(trifluoromethyl)phenyl)isoxazol-4-yl)-7-azaspiro[3.5]non-1-en-7-yl)-8-methylquinoline-3-carboxylic acid]	1750
Cn1cc(C(=O)O)c2ccc(N3CCC4(CC3)CC(c3c(C(F)F)cnn3-c3ccccc3C(F)(F)F)C4)cc21 [Example 222, 6-(2-(4-(Difluoromethyl)-1-(2-(trifluoromethyl)phenyl)-1H-pyrazol-5-yl)-7-azaspiro[3. 5]nonan-7-yl)-1-methyl-1H-indole-3-carboxylic acid]	275
Cn1cc(C(=O)O)c2ccc(N3CCC4(C=C(c5c(-c6ccccc6C(F)(F)F)noc5C5CC5)C4)CC3)cc21 [Example 141, 6-(2-(5-Cyclopropyl-3-(2-(trifluoromethyl)phenyl)isoxazol-4-yl)-7-azaspiro[3.5]non-1-en-7-yl)-1-methyl-1H-indole-3-carboxylic acid]	142
O=C(O)c1ccc(N2CCC3(CC2)COC(c2c(-c4ccccc4OC(F)(F)F)noc2C2CC2)O3)nc1 (stereo not drawn) [Example 43, 6-(2-(5-Cyclopropyl-3-(2-(trifluoromethoxy)phenyl)isoxazol-4-yl)-1,3-dioxa-8-azaspiro[4.5]decan-8-yl)nicotinic acid]	5300
CS(=O)(=O)NC(=O)c1cc(OC(F)F)c2cc(N3CCC4(C=C(c5c(-c6cnccc6C(F)(F)F)noc5C5CC5)C4)CC3)ccc2n1 [Example 187, 6-(2-(5-Cyclopropyl-3-(4-(trifluoromethyl)pyridin-3-yl)isoxazol-4-yl)-7-azaspiro[3.5]non-1-en-7-yl)-4-(difluoromethoxy)-N-(methylsulfonyl)quinoline-2-carboxamide]	63
COc1cc2nc(N3CCC4(C=C(c5c(-c6c(Cl)cncc6Cl)noc5C5CC5)C4)CC3)sc2cc1C(=O)O [Example 51, 2-(2-(5-Cyclopropyl-3-(3,5-dichloropyridin-4-yl)isoxazol-4-yl)-7-azaspiro[3.5]non-1-en-7-yl)-5-methoxybenzo[d]thiazole-6-carboxylic acid]	72
O=C(O)c1cc(F)c2nc(N3CCC4(CC3)CC(c3c(C(F)F)cnn3-c3ccccc3C(F)(F)F)C4)sc2c1 [Example 215, 2-(2-(4-(Difluoromethyl)-1-(2-(trifluoromethyl)phenyl)-1H-pyrazol-5-yl)-7-azaspiro[3.5]nonan-7-yl)-4-fluorobenzo[d]thiazole-6-carboxylic acid]	995
O=C(O)c1ccc(N2CCC3(CC2)CC(c2c(-c4ccccc4C(F)(F)F)noc2C2CC2)C3)nc1 [Example 37]	1400
O=C(O)c1cc(OCCO)c2cc(N3CCC4(C=C(c5c(-c6ccccc6C(F)(F)F)noc5C5CC5)C4)CC3)ccc2n1 [Example 143, 6-(2-(5-Cyclopropyl-3-(2-(trifluoromethyl)phenyl)isoxazol-4-yl)-7-azaspiro[3.5]non-1-en-7-yl)-4-(2-hydroxyethoxy)quinoline-2-carboxylic acid]	159
O=C(O)c1cc(C(F)(F)F)c2cc(N3CCC4(C=C(c5c(-c6cnccc6C(F)(F)F)noc5C5CC5)C4)CC3)ccc2n1 [Example 90, 6-(2-(5-Cyclopropyl-3-(4-(trifluoromethyl)pyridin-3-yl)isoxazol-4-yl)-7-azaspiro[3.5]non-1-en-7-yl)-4-(trifluoromethyl)quinoline-2-carboxylic acid]	195
Cn1cc(C(=O)O)c2cnc(N3CCC4(C=C(c5c(-c6c(Cl)cccc6Cl)noc5C5CC5)C4)CC3)cc21 [Example 117, 6-(2-(5-Cyclopropyl-3-(2,6-dichlorophenyl)isoxazol-4-yl)-7-azaspiro[3.5]non-1-en-7-yl)-1-methyl-1H-pyrrolo[3,2-c]pyridine-3-carboxylic acid]	139
O=C(O)c1ccc(N2CCC3(C=C(c4c(-c5ncccc5Cl)noc4C4CC4)C3)CC2)nc1 [Example 171, 6-(2-(3-(3-Chloropyridin-2-yl)-5-cyclopropylisoxazol-4-yl)-7-azaspiro[3.5]non-1-en-7-yl)nicotinic acid]	1870
CC(C)Oc1cc(C(=O)O)nc2ccc(N3CCC4(C=C(c5c(-c6c(Cl)cc(F)cc6Cl)noc5C5CC5)C4)CC3)cc12 [Example 110, 6-(2-(5-Cyclopropyl-3-(2,6-dichloro-4-fluorophenyl)isoxazol-4-yl)-7-azaspiro[3.5]non-1-en-7-yl)-4-isopropoxyquinoline-2-carboxylic acid]	37
Cc1nc(C(=O)O)c2ccc(N3CCC4(C=C(c5c(-c6c(Cl)cccc6Cl)noc5C5CC5)C4)CC3)cn12 [Example 127, 6-(2-(5-Cyclopropyl-3-(2,6-dichlorophenyl)isoxazol-4-yl)-7-azaspiro[3.5]non-1-en-7-yl)-3-methylimidazo[1,5-a]pyridine-1-carboxylic acid]	267
O=C(O)c1cc2ccc(N3CCC4(C=C(c5c(-c6cnccc6C(F)(F)F)noc5C5CC5)C4)CC3)cc2nn1 [Example 81, 7-(2-(5-Cyclopropyl-3-(4-(trifluoromethyl)pyridin-3-yl)isoxazol-4-yl)-7-azaspiro[3.5]non-1-en-7-yl)cinnoline-3-carboxylic acid]	1540

From US11078198B2 (BRISTOL-MYERS SQUIBB COMPANY, priority 2017, dated 2021)
